# According to PubChem BioAssay AID1845200 (Molecular Pharmacology Branch, DTP, NCI, 2023):
# System: ASPS-1 complex tumor spheroids, viability
# Test: Anticancer human tumor ASPS-1 cell line growth inhibition;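 further: spheroids exposed to agents for 7 days after 3 days of growth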;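 on viability, T/C: 100% = DMSO vehicle treated spheroids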
# Settings: for IC50: curve of first compound; for viability, T/C: stronger effect = lower value
# Summary of the method: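 Single agents and combinations were tested on spheroids built from tumor cells plus HUVEC and hMSC, at half-log dilutions starting at or near clinical Cmax, else 10 microM; final DMSO 0.25% (v/v).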
# [1] = second compound 30 pM, first compound 0.00949 µM
# [2] = second compound 30 pM, first compound 0.03 µM
# [3] = second compound 30 pM, first compound 0.0949 µM
# [4] = second compound 30 pM, first compound 0.3 µM
# [5] = second compound 30 pM, first compound 0.949 µM
# [6] = second compound 30 pM, first compound 3 µM
# [7] = second compound 94.9 pM, first compound 0.00949 µM
# [8] = second compound 94.9 pM, first compound 0.03 µM
# [9] = second compound 94.9 pM, first compound 0.0949 µM
# [10] = second compound 94.9 pM, first compound 0.3 µM
# [11] = second compound 94.9 pM, first compound 0.949 µM
# [12] = second compound 94.9 pM, first compound 3 µM
# [13] = second compound 0.0003 µM, first compound 0.00949 µM
# [14] = second compound 0.0003 µM, first compound 0.03 µM
# [15] = second compound 0.0003 µM, first compound 0.0949 µM
# [16] = second compound 0.0003 µM, first compound 0.3 µM
# [17] = second compound 0.0003 µM, first compound 0.949 µM
# [18] = second compound 0.0003 µM, first compound 3 µM
# [19] = second compound 0.000949 µM, first compound 0.00949 µM
# [20] = second compound 0.000949 µM, first compound 0.03 µM
# [21] = second compound 0.000949 µM, first compound 0.0949 µM
# [22] = second compound 0.000949 µM, first compound 0.3 µM
# [23] = second compound 0.000949 µM, first compound 0.949 µM
# [24] = second compound 0.000949 µM, first compound 3 µM
# [25] = second compound 0.003 µM, first compound 0.00949 µM
# [26] = second compound 0.003 µM, first compound 0.03 µM
# [27] = second compound 0.003 µM, first compound 0.0949 µM
# [28] = second compound 0.003 µM, first compound 0.3 µM
# [29] = second compound 0.003 µM, first compound 0.949 µM
# [30] = second compound 0.003 µM, first compound 3 µM
structure (smiles),measurement,setting,value
CNCc1ccc(-c2cc(-c3nc(-c4ccc(S(=O)(=O)C(C)C)cc4)cnc3N)on2)cc1 + COc1cc2c(cc1O)CCNC21CSC2c3c(OC(C)=O)c(C)c4c(c3C(COC1=O)N1C(O)C3Cc5cc(C)c(OC)c(O)c5C(C21)N3C)OCO4,IC50,second compound 30 pM,922 nM
same,IC50,second compound 94.9 pM,857 nM
same,IC50,second compound 0.0003 µM,552 nM
same,IC50,second compound 0.000949 µM,185 nM
same,IC50,second compound 0.003 µM,< 9.49 nM
same,"viability, T/C",[1],109%
same,"viability, T/C",[2],104%
same,"viability, T/C",[3],105%
same,"viability, T/C",[4],74.3%
same,"viability, T/C",[5],51.9%
same,"viability, T/C",[6],14.9%
same,"viability, T/C",[7],106%
same,"viability, T/C",[8],108%
same,"viability, T/C",[9],108%
same,"viability, T/C",[10],80.8%
same,"viability, T/C",[11],48.3%
same,"viability, T/C",[12],9.57%
same,"viability, T/C",[13],106%
same,"viability, T/C",[14],111%
same,"viability, T/C",[15],102%
same,"viability, T/C",[16],66.4%
same,"viability, T/C",[17],34.7%
same,"viability, T/C",[18],5.83%
same,"viability, T/C",[19],85.8%
same,"viability, T/C",[20],83%
same,"viability, T/C",[21],64.9%
same,"viability, T/C",[22],36.1%
same,"viability, T/C",[23],20.2%
same,"viability, T/C",[24],1.09%
same,"viability, T/C",[25],16.9%
same,"viability, T/C",[26],24.3%
same,"viability, T/C",[27],15.2%
same,"viability, T/C",[28],2.85%
same,"viability, T/C",[29],0.66%
same,"viability, T/C",[30],0.65%
Cc1sc2c(c1C)C(c1ccc(Cl)cc1)=NC(CC(=O)Nc1ccc(O)cc1)c1nnc(C)n1-2 (stereo not given) + COc1cc2c(cc1O)CCNC21CSC2c3c(OC(C)=O)c(C)c4c(c3C(COC1=O)N1C(O)C3Cc5cc(C)c(OC)c(O)c5C(C21)N3C)OCO4,IC50,second compound 30 pM,> 3000 nM
same,IC50,second compound 94.9 pM,> 3000 nM
same,IC50,second compound 0.0003 µM,> 3000 nM
same,IC50,second compound 0.000949 µM,772 nM
same,IC50,second compound 0.003 µM,< 9.49 nM
same,"viability, T/C",[1],109%
same,"viability, T/C",[2],112%
same,"viability, T/C",[3],113%
same,"viability, T/C",[4],103%
same,"viability, T/C",[5],94%
same,"viability, T/C",[6],83%
same,"viability, T/C",[7],106%
same,"viability, T/C",[8],107%
same,"viability, T/C",[9],109%
same,"viability, T/C",[10],103%
same,"viability, T/C",[11],93.4%
same,"viability, T/C",[12],70.2%
same,"viability, T/C",[13],102%
same,"viability, T/C",[14],110%
same,"viability, T/C",[15],103%
same,"viability, T/C",[16],97.1%
same,"viability, T/C",[17],85.2%
same,"viability, T/C",[18],72.4%
same,"viability, T/C",[19],81.6%
same,"viability, T/C",[20],94.7%
same,"viability, T/C",[21],88.7%
same,"viability, T/C",[22],76.9%
same,"viability, T/C",[23],44.3%
same,"viability, T/C",[24],26.3%
same,"viability, T/C",[25],24.1%
same,"viability, T/C",[26],24.6%
same,"viability, T/C",[27],29.2%
same,"viability, T/C",[28],20.9%
same,"viability, T/C",[29],9.4%
same,"viability, T/C",[30],1.27%
Cn1ncnc1[C@H]1c2n[nH]c(=O)c3cc(F)cc(c23)N[C@@H]1c1ccc(F)cc1 + COc1cc2c(cc1O)CCNC21CSC2c3c(OC(C)=O)c(C)c4c(c3C(COC1=O)N1C(O)C3Cc5cc(C)c(OC)c(O)c5C(C21)N3C)OCO4,IC50,second compound 30 pM,> 3000 nM
same,IC50,second compound 94.9 pM,> 3000 nM
same,IC50,second compound 0.0003 µM,2230 nM
same,IC50,second compound 0.000949 µM,562 nM
same,IC50,second compound 0.003 µM,< 9.49 nM
same,"viability, T/C",[1],102%
same,"viability, T/C",[2],93.8%
same,"viability, T/C",[3],101%
same,"viability, T/C",[4],101%
same,"viability, T/C",[5],89.3%
same,"viability, T/C",[6],62.8%
same,"viability, T/C",[7],97.3%
same,"viability, T/C",[8],97.2%
same,"viability, T/C",[9],98%
same,"viability, T/C",[10],94%
same,"viability, T/C",[11],88.8%
same,"viability, T/C",[12],57.5%
same,"viability, T/C",[13],86%
same,"viability, T/C",[14],89.8%
same,"viability, T/C",[15],85.2%
same,"viability, T/C",[16],83.3%
same,"viability, T/C",[17],75.4%
same,"viability, T/C",[18],40.9%
same,"viability, T/C",[19],70.3%
same,"viability, T/C",[20],63.5%
same,"viability, T/C",[21],56.7%
same,"viability, T/C",[22],59.7%
same,"viability, T/C",[23],45.1%
same,"viability, T/C",[24],28.4%
same,"viability, T/C",[25],21.5%
same,"viability, T/C",[26],21.8%
same,"viability, T/C",[27],19.4%
same,"viability, T/C",[28],16.6%
same,"viability, T/C",[29],13.3%
same,"viability, T/C",[30],4.87%
O=C(c1cc(Cc2n[nH]c(=O)c3ccccc23)ccc1F)N1CCN(C(=O)C2CC2)CC1 + COc1cc2c(cc1O)CCNC21CSC2c3c(OC(C)=O)c(C)c4c(c3C(COC1=O)N1C(O)C3Cc5cc(C)c(OC)c(O)c5C(C21)N3C)OCO4,IC50,second compound 30 pM,26000 nM
same,IC50,second compound 94.9 pM,22100 nM
same,IC50,second compound 0.0003 µM,13000 nM
same,IC50,second compound 0.000949 µM,2080 nM
same,IC50,second compound 0.003 µM,< 94.9 nM
same,"viability, T/C",[3],114%
same,"viability, T/C",[4],112%
same,"viability, T/C",[5],105%
same,"viability, T/C",[6],107%
same,"viability, T/C","second compound 30 pM, first compound 9.49 µM",106%
same,"viability, T/C","second compound 30 pM, first compound 30 µM",42.2%
same,"viability, T/C",[9],103%
same,"viability, T/C",[10],103%
same,"viability, T/C",[11],108%
same,"viability, T/C",[12],101%
same,"viability, T/C","second compound 94.9 pM, first compound 9.49 µM",98.6%
same,"viability, T/C","second compound 94.9 pM, first compound 30 µM",32.5%
same,"viability, T/C",[15],97.8%
same,"viability, T/C",[16],106%
same,"viability, T/C",[17],102%
same,"viability, T/C",[18],98.5%
same,"viability, T/C","second compound 0.0003 µM, first compound 9.49 µM",60.3%
same,"viability, T/C","second compound 0.0003 µM, first compound 30 µM",22.9%
same,"viability, T/C",[21],73%
same,"viability, T/C",[22],75.1%
same,"viability, T/C",[23],59.5%
same,"viability, T/C",[24],45.3%
same,"viability, T/C","second compound 0.000949 µM, first compound 9.49 µM",21.5%
same,"viability, T/C","second compound 0.000949 µM, first compound 30 µM",4.17%
same,"viability, T/C",[27],21.6%
same,"viability, T/C",[28],22.4%
same,"viability, T/C",[29],17.4%
same,"viability, T/C",[30],12.7%
same,"viability, T/C","second compound 0.003 µM, first compound 9.49 µM",3.59%
same,"viability, T/C","second compound 0.003 µM, first compound 30 µM",1.41%
